Values quoted from earlier work as cited in paper PMC10651775 (Blood, 2022).

System: R/R ATL
Settings: phase 2 study (5/16); cited from earlier work

Nc1cccc2c1CN(C1CCC(=O)NC1=O)C2=O (stereo not shown) [lenalidomide]
ORR in nodal or extranodal lesions: 31%
